tested on: Human Umbilical Vein Endothelial cells (VEGF-stimulated HUVEC proliferation); assay: HUVEC Proliferation Assay (VEGF-stimulated); type: cell-based; settings: VEGF 50 ng/mL, 72 h incubation, CyQuant readout, read-out: inhibited VEGF-stimulated HUVEC proliferation at a level below (IC50)
Procedure: Human Umbilical Vein Endothelial cells are purchased from Clonetics, Inc., as cryopreserved cells harvested from a pool of donors. These cells, at passage 1, are thawed and expanded in EBM-2 complete medium, until passage 2 or 3. The cells are trypsinized, washed in DMEM+10% FBS+antibiotics, and spun at 1000 rpm for 10 min. Prior to centrifugation of the cells, a small amount is collected for a cell count. After centrifugation, the medium is discarded, and the cells are resuspended in the appropriate volume of DMEM+10% FBS+antibiotics to achieve a concentration of 3×10^5 cells/mL. Another cell count is performed to confirm the cell concentration. The cells are diluted to 3×10^4 cells/mL in DMEM+10% FBS+antibiotics, and 100 μL of cells are added to a 96-well plate. The cells are incubated at 37° C. for 22 h.
Prior to the completion of the incubation period, compound dilutions are prepared. Five-point, five-fold serial dilutions are prepared in DMSO, at concentrations 400-fold greater than the final concentrations desired. 2.5 μL of each compound dilution are diluted further in a total of 1 mL DMEM+10% FBS+antibiotics (400× dilution). Medium containing 0.25% DMSO is also prepared for the 0 μM compound sample. At the 22-hour timepoint, the medium is removed from the cells, and 100 μL of each compound dilution is added. The cells are incubated at 37° C. for 2-3 h.
During the compound pre-incubation period, the growth factors are diluted to the appropriate concentrations. Solutions of DMEM+10% FBS+antibiotics, containing either VEGF or bFGF at the following concentrations: 50, 10, 2, 0.4, 0.08, and 0 ng/mL are prepared. For the compound-treated cells, solutions of VEGF at 550 ng/mL or bFGF at 220 ng/mL for 50 ng/mL or 20 ng/mL final concentrations, respectively, are prepared since 10 μL of each will be added to the cells (110 μL final volume). At the appropriate time after adding the compounds, the growth factors are added. VEGF is added to one set of plates, while bFGF is added to another set of plates. For the growth factor control curves, the media on wells B4-G6 of plates 1 and 2 are replaced with media containing VEGF or bFGF at the varying concentrations (50-0 ng/mL). The cells are incubated at 37° C. for an additional 72 h.
At the completion of the 72 h incubation period, the medium is removed, and the cells are washed twice with PBS. After the second wash with PBS, the plates are tapped gently to remove excess PBS, and the cells are placed at −70° C. for at least 30 min. The cells are thawed and analyzed using the CyQuant fluorescent dye (Molecular Probes C-7026), following the manufacturer's recommendations. The plates are read on a Victor/Wallac 1420 workstation at 485 nm/530 nm (excitation/emission). Raw data are collected and analyzed using a 4-parameter fit equation in XLFit. IC50 values are then determined.

Which IC50 does the source give for CN1CC(C)(C)Oc2ccc(NC(=O)c3cccnc3Nc3ccc4cn[nH]c4c3)cc21 [Example 92, 2-(1H-Indazol-6-ylamino)-N-(2,2,4-trimethyl-3,4-dihydro-2H-benzo[1,4]oxazin-6-yl)-nicotinamide] here?
Its IC50 is < 50 nM.

Which IC50 does the source give for CC(C)(C)c1ccc(NC(=O)c2cccnc2Nc2ccc3cn[nH]c3c2)cc1OCC1CCNCC1 [Example 93, N-[4-tert-Butyl-3-(piperidin-4-ylmethoxy)-phenyl]-2-(1H-indazol-6-ylamino)-nicotinamide] here?
The IC50 was < 50 nM.

With CC(=O)N1Cc2cc(NC(=O)c3cccnc3Nc3ccc4cn[nH]c4c3)ccc2C(C)(C)C1 [Example 94, N-(2-Acetyl-4,4-dimethyl-1,2,3,4-tetrahydro-isoquinolin-7-yl)-2-(1H-indazol-6-ylamino)-nicotinamide] as the compound, how does the IC50 read?
Its IC50 is < 50 nM.

Which IC50 does the source give for CC(C)(C)OC(=O)N1CCC[C@H]1COc1cc(NC(=O)c2cccnc2Nc2ccc3cn[nH]c3c2)ccc1C(C)(C)C [Example 95, 1-Boc-2-(2-tert-Butyl-5-{[2-(1H-indazol-6-ylamino)-pyridine-3-carbonyl]-amino}-phenoxymethyl)-pyrrolidine] here?
The IC50 was < 50 nM.

For CC(C)(C)c1ccc(NC(=O)c2cccnc2Nc2ccc3cn[nH]c3c2)cc1OC[C@@H]1CCCN1 [Example 96, N-[4-tert-Butyl-3-(pyrrolidin-2-ylmethoxy)-phenyl]-2-(1H-indazol-6-ylamino)-nicotinamide], which IC50 is on record?
The IC50 was < 50 nM.

With O=C(Nc1cc(OC[C@@H]2CCCN2)cc(C(F)(F)F)c1)c1cccnc1Nc1ccc2cn[nH]c2c1 [Example 97, 2-(1H-Indazol-6-ylamino)-N-[3-(2S-pyrrolidin-2-ylmethoxy)-5-trifluoromethyl-phenyl]-nicotinamide] as the compound, how does the IC50 read?
Its IC50 is < 50 nM.

Which IC50 does the source give for CC(C)(C)c1ccc(NC(=O)c2cccnc2Nc2ccc3cn[nH]c3c2)cc1N1CCNCC1 [Example 98, N-(4-tert-Butyl-3-piperazin-1-yl-phenyl)-2-(1H-indazol-6-ylamino)-nicotinamide] here?
Its IC50 is < 50 nM.

How did the IC50 turn out when CC1(C)CNc2cc(NC(=O)c3cccnc3Nc3ccc4cn[nH]c4c3)ccc21 [Example 99, N-(3,3dimethyl-2,3-dihydro-1H-indol-6-yl)-2-(1H-indazol-6-ylamino)-nicotinamide] was run?
Its IC50 is < 50 nM.

For CC1(C)CN(C2CCNCC2)c2cc(NC(=O)c3cccnc3Nc3ccc4cn[nH]c4c3)ccc21 [Example 100, N-(3,3-Dimethyl-1-piperidin-4-yl-2,3-dihydro-1H-indol-6-yl)-2-(1H-indazol-6-ylamino)-nicotinamide], which IC50 is on record?
Its IC50 is < 50 nM.

Which IC50 does the source give for CC1(C)CNc2cc(NC(=O)c3cccnc3Nc3ccc4cn[nH]c4c3)ccc2O1 [Example 101, N-(2,2-Dimethyl-3,4-dihydro-2H-benzo[1,4]oxazin-6-yl)-2-(1H-indazol-6-ylamino)-nicotinamide] here?
The IC50 was < 50 nM.

CCCN1CCN(c2cc(NC(=O)c3cccnc3Nc3ccc4cn[nH]c4c3)ccc2C(C)(C)C)CC1 [Example 102, N-[4-tert-Butyl-3-(4-propyl-piperazin-1-yl)-phenyl]-2-(1H-indazol-6-ylamino)-nicotinamide] was tested. Which IC50 did it give?
The IC50 was < 50 nM.

How did the IC50 turn out when CC(C)N1CCN(c2cc(NC(=O)c3cccnc3Nc3ccc4cn[nH]c4c3)ccc2C(C)(C)C)CC1 [Example 103, N-[4-tert-Butyl-3-(4-isopropyl-piperazin-1-yl)-phenyl]-2-(1H-indazol-6-ylamino)-nicotinamide] was run?
The IC50 was < 50 nM.

How did the IC50 turn out when CN1CCC[C@H]1COc1cc(NC(=O)c2cccnc2Nc2ccc3cn[nH]c3c2)cc(C(F)(F)F)c1 [Example 104, 2-(1H-Indazol-6-ylamino)-N-[3-(1-methylpyrrolidin-2-ylmethoxy)-5-trifluoromethyl-phenyl]-nicotinamide] was run?
The IC50 was < 50 nM.

Which IC50 does the source give for CC1(C)CNC(=O)c2cc(NC(=O)c3cccnc3Nc3ccc4cn[nH]c4c3)ccc21 [Example 105, N-(4,4-Dimethyl-1-oxo-1,2,3,4-tetrahydro-isoquinolin-7-yl)-2-(1H-indazol-6-ylamino)-nicotinamide] here?
Its IC50 is < 50 nM.

Which IC50 does the source give for CC1(C)COc2cc(NC(=O)c3cccnc3Nc3ccc4cn[nH]c4c3)ccc21 [Example 106, N-(3,3-Dimethyl-2,3-dihydro-benzofuran-6-yl)-2-(1H-indazol-6-ylamino)-nicotinamide] here?
Its IC50 is < 50 nM.

How did the IC50 turn out when CN(C)CC(=O)N1CC(C)(C)c2ccc(NC(=O)c3cccnc3Nc3ccc4cn[nH]c4c3)cc21 [Example 107, N-[1-(2-Dimethylamino-acetyl)-3,3-dimethyl-2,3-dihydro-1H-indol-6-yl]-2-(1H-indazol-6-ylamino)-nicotinamide] was run?
Its IC50 is < 50 nM.

CN1CCN(Cc2cc(NC(=O)c3cccnc3Nc3ccc4cn[nH]c4c3)ccc2C(F)(F)C(F)(F)F)CC1 [Example 108, 2-(1H-Indazol-6-ylamino)-N-[3-(4-methyl-piperazin-1-ylmethyl)-4-pentafluoroethyl-phenyl]-nicotinamide] was tested. Which IC50 did it give?
The IC50 was < 50 nM.

Which IC50 does the source give for O=C(Nc1ccc(C(F)(F)C(F)(F)F)c(CN2CCOCC2)c1)c1cccnc1Nc1ccc2cn[nH]c2c1 [Example 110, 2-(1H-Indazol-6-ylamino)-N-(3-morpholin-4-ylmethyl-4-pentafluoroethyl-phenyl)-nicotinamide] here?
Its IC50 is < 50 nM.

O=C(Nc1ccc(C(F)(F)C(F)(F)F)c(CN2CCNCC2)c1)c1cccnc1Nc1ccc2cn[nH]c2c1 [Example 111, 2-(1H-Indazol-6-ylamino)-N-(4-pentafluoroethyl-3-piperazin-1-ylmethyl-phenyl)-nicotinamide] was tested. Which IC50 did it give?
The IC50 was < 50 nM.

With CC(C)(C)c1ccc(NC(=O)c2cccnc2Nc2ccc3cn[nH]c3c2)cc1NCCO [Example 115, N-[4-tert-Butyl-3-(2-hydroxy-ethylamino)-phenyl]-2-(1H-indazol-6-ylamino)-nicotinamide] as the compound, how does the IC50 read?
The IC50 was < 50 nM.

CC(C)(C)c1ccc(NC(=O)c2cccnc2Nc2ccc3cn[nH]c3c2)cc1NCCN1CCOCC1 [Example 116, N-[4-tert-Butyl-3-(2-morpholin-4-yl-ethylamino)-phenyl]-2-(1H-indazol-6-ylamino)-nicotinamide] was tested. Which IC50 did it give?
Its IC50 is < 50 nM.

O=C(Nc1ccc2c(c1)CN(CCN1CCOCC1)CC2)c1cccnc1Nc1ccc2cn[nH]c2c1 [Example 118, 2-(1H-Indazol-6-ylamino)-N-[2-(2-morpholin-4-yl-ethyl)-1,2,3,4-tetrahydro-isoquinolin-7-yl]-nicotinamide] was tested. Which IC50 did it give?
Its IC50 is < 50 nM.

How did the IC50 turn out when O=C(Nc1ccc2c(C(F)(F)F)cc(=O)oc2c1)c1cccnc1Nc1ccc2cn[nH]c2c1 [Example 120, 2-(1H-Indazol-6-ylamino)-N-(2-oxo-4-trifluoromethyl-2H-chromen-7-yl)-nicotinamide] was run?
The IC50 was < 50 nM.

With CN1CC=C(c2cc(NC(=O)c3cccnc3Nc3ccc4cn[nH]c4c3)cc(C(F)(F)F)c2)CC1 [Example 121, 2-(1H-Indazol-6-ylamino)-N-[3-(1-methyl-1,2,3,6-tetrahydro-pyridin-4-yl)-5-trifluoromethyl-phenyl]-nicotinamide] as the compound, how does the IC50 read?
The IC50 was < 50 nM.

With O=C(Nc1ccc(C(F)(F)C(F)(F)F)cc1)c1cccnc1Nc1ccc2cn[nH]c2c1 [Example 123, 2-(1H-Indazol-6-ylamino)-N-(4-pentafluoroethyl-phenyl)-nicotinamide] as the compound, how does the IC50 read?
The IC50 was < 50 nM.

For CC(C)(C)c1ccc(NC(=O)c2cccnc2Nc2ccc3cn[nH]c3c2)cc1NC1CCNCC1 [Example 124, N-[4-tert-Butyl-3-(piperidin-4-ylamino)-phenyl]-2-(1H-indazol-6-ylamino)-nicotinamide], which IC50 is on record?
Its IC50 is < 50 nM.

From patent US7102009B2, “Substituted amine derivatives and methods of use” (Amgen Inc., priority 2001, dated 2006)
